Several values for one entry are separate records, joined by “and”; a condition that tells them apart may be missing. Equal values may be shown once.

One test has as its system Hs578T multi-cell spheroids, viability. Put plainly: Anticancer human tumor Hs578T cell line growth inhibition [IpAb].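 Also: drug exposure lasted 7 days before readout.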 The settings on record: compound 0.000316 µM; hits give low values. The source says: Combinatorial screen of targeted agents with ipatasertib and abemaciclib in multi-cell type tumor spheroids
A high-throughput screen of multi-cell type tumor spheroids was designed to identify active combinations of targeted small molecules and ipatasertib or abemaciclib. Complex spheroids include a stromal component modeled by human endothelial cells (HUVEC) and fibroblasts modeled by human mesenchymal stem cells (MSCs). The concentration ranges selected for each drug and investigational agent were based upon clinically achievable concentrations if the clinical Cmax of the agent was known.
Compounds. The drugs and investigational agents: ipatasertib (NSC767898), abemaciclib(NSC768073), selumetinib (NSC741078), trametinib (758246), adavosertib (NSC754352), everolimus (NSC733504), sapanisertib (NSC764658), vemurafenib (NSC761431), venetoclax (NSC766270), copanlisib (NSC809693), apelisib (NSC765974), palbociblib (NSC758247), vemurafenib (NSC761431), dabrafenib (NSC764134), ravoxertinib (NSC781343), BMS-387032 (NSC767048), sotorasib (NSC818433), talazoparib (NSC767125) and afursertib (NSC778305), were obtained from the National Cancer Institute (NCI) Developmental Therapeutics Program Chemical Repository. The FDA-approved anticancer drug set is available from the NCI Developmental Therapeutics Program. […] The stock solutions were prepared in dimethyl sulfoxide (DMSO, Sigma-Aldrich, St. Louis, MO, cat. D2650) at 800-fold the tested concentration and stored at -70 degrees C prior to their use. All drugs and investigational agents were tested over a range starting from a high concentration at or near the clinical Cmax and decreasing in half-log increments. If the clinical Cmax for an agent had not been determined, the highest concentration tested was 10 microM.
NCI60 Cell Culture. NCI60 cell lines were obtained from the NCI Developmental Therapeutics Program Tumor Repository. For each lot of cells, the Repository performed Applied Biosystems AmpFLSTR Identifiler testing with PCR amplification to confirm consistency with the published Identifier STR profile for each cell line. Cells were kept in continuous culture for no more than 20 passages. The optimal seeding densities for each of the cell lines at each time point assessed were determined prior to performing the concentration response studies. Briefly, the NCI60 human tumor lines were grown as monolayers in RPMI 1640 medium supplemented with 10% FBS and 2 mmol/L L-glutamine.
An additional 9 lines were from the NCI60 cell line panel including MDA-MB-231 breast carcinoma, MDA-MB-468 breast carcinoma, MCF7 breast carcinoma, Hs578T breast carcinoma, MALME-3M melanoma, SK-MEL-2 melanoma, SK-OV-3 ovarian carcinoma, DU-145 prostate carcinoma, PC-3 prostate carcinoma, all cell lines along with major genetic alterations are listed on Table 2. Pooled donor human umbilical vein endothelial cells (HUVEC, Lonza, cat. CC-2519) and human mesenchymal stem cells (hMSC, Lonza, cat. PT-2501) were purchased from Lonza (Walkersville, MD).
PDMR cell lines were grown in complete medium (DC medium): Dulbecco's modified Eagle's medium (DMEM)/F12 supplemented with 5% fetal bovine serum (FBS), 2 mM L-glutamine, 100 U/mL penicillin and 100 µg/ml streptomycin, 0.4 µg/ml hydrocortisone, 10 ng/ml epidermal growth factor (EGF) recombinant human protein, 24 µg/mL adenine, and 0.1 mg/mL primocin. During culture from frozen stock vials, PDMR cells were cultured in the same medium containing 10 µM Y-27632 (see Table 3). The PDCs were cultured in complete DMEM/F12 media without 10 microM Y-27632 dihydrochloride for at least two passages prior to the screen. The pooled donor HUVEC and hMSC were cultured in endothelial cell growth medium 2 (PromoCell, Heidelberg, Germany, cat. C-22011) and mesenchymal stem cell growth medium 2 (PromoCell, cat. C-28009), respectively. For all experiments, HUVEC and hMSC were used at passages </=5.
[…]
As usually defined, the viability, T/C is the ratio of treated to control. Regarding `CC(C)n1nc(-c2ccc3oc(N)nc3c2)c2c(N)ncnc21`, the viability, T/C was 95.3% and 94.5%.
The same measure, in the same setting: then `Cn1ncnc1[C@H]1c2n[nH]c(=O)c3cc(F)cc(c23)N[C@@H]1c1ccc(F)cc1`, with 94% and 104%.

The same test, now with this note: compound 0.000949 µM; hits give low values.
In the case of `CC(=O)c1c(C)c2cnc(Nc3ccc(N4CCNCC4)cn3)nc2n(C2CCCC2)c1=O`, the viability, T/C is 105% and 108%.

Still in this test, the particulars now being: compound 0.001 µM; hits give low values.
For `CC(C)n1nc(-c2ccc3oc(N)nc3c2)c2c(N)ncnc21`, the viability, T/C was 92.4% and 104%.
`Cn1ncnc1[C@H]1c2n[nH]c(=O)c3cc(F)cc(c23)N[C@@H]1c1ccc(F)cc1`: the viability, T/C was 101% and 102%.

Staying with this test, now noted: compound 0.003 µM; hits give low values.
As for `CC(=O)c1c(C)c2cnc(Nc3ccc(N4CCNCC4)cn3)nc2n(C2CCCC2)c1=O`, the viability, T/C was 90.8% and 99.7%.

The same test, now with this note: compound 0.00316 µM; hits give low values.
For `CC(C)n1nc(-c2ccc3oc(N)nc3c2)c2c(N)ncnc21`, the viability, T/C is 74.8% and 76.7%.
As to `COc1c(OCCCN2CCOCC2)ccc2c3n(c(=NC(=O)c4cnc(N)nc4)nc12)CCN3`, the viability, T/C was 88.8% and 99.7%.
The same measure, in the same setting: the same measure for `Cn1ncnc1[C@H]1c2n[nH]c(=O)c3cc(F)cc(c23)N[C@@H]1c1ccc(F)cc1`: 88% and 103%.

Staying with this test, now noted: compound 0.00949 µM; hits give low values.
Regarding `CC(=O)c1c(C)c2cnc(Nc3ccc(N4CCNCC4)cn3)nc2n(C2CCCC2)c1=O`, the viability, T/C was 92.8% and 87.4%.
On the same count and under the same terms, the same measure for `CC(C)(C)c1cnc(CSc2cnc(NC(=O)C3CCNCC3)s2)o1`: 102% and 104%.
Still for that read-out and setting: then `Cn1cnc2c(F)c(Nc3ccc(Br)cc3Cl)c(C(=O)NOCCO)cc21`, with 102% and 100%.

Still in this test, the particulars now being: compound 0.01 µM; hits give low values.
For `CC(C)n1nc(-c2ccc3oc(N)nc3c2)c2c(N)ncnc21`, the viability, T/C is 43.1% and 49.1%.
Consider `CCN1CCN(Cc2ccc(Nc3ncc(F)c(-c4cc(F)c5nc(C)n(C(C)C)c5c4)n3)nc2)CC1`, for which the viability, T/C is 97.2% [middle of 13 runs].
Same read-out and setting: the same measure for `COc1c(OCCCN2CCOCC2)ccc2c3n(c(=NC(=O)c4cnc(N)nc4)nc12)CCN3`: 66.7% and 76.7%; for `Cn1ncnc1[C@H]1c2n[nH]c(=O)c3cc(F)cc(c23)N[C@@H]1c1ccc(F)cc1`: 91.7% and 96.2%.

Staying with this test, now noted: compound 0.03 µM; hits give low values.
As to `CC(=O)c1c(C)c2cnc(Nc3ccc(N4CCNCC4)cn3)nc2n(C2CCCC2)c1=O`, the viability, T/C was 82.7% and 87.7%.
Still for that read-out and setting: the same measure for `CC(C)(C)c1cnc(CSc2cnc(NC(=O)C3CCNCC3)s2)o1`: 113% and 114%; for `Cn1cnc2c(F)c(Nc3ccc(Br)cc3Cl)c(C(=O)NOCCO)cc21`: 104% and 97.5%.

The same test, now with this note: compound 0.0316 µM; hits give low values.
`C=CC(=O)N1CCN(c2nc(=O)n(-c3c(C)ccnc3C(C)C)c3nc(-c4c(O)cccc4F)c(F)cc23)C(C)C1` (stereo unspecified): the viability, T/C is 103% and 104%.
Still for that read-out and setting: the same measure for `C=CCn1c(=O)c2cnc(Nc3ccc(N4CCN(C)CC4)cc3)nc2n1-c1cccc(C(C)(C)O)n1`: 98.6% and 100%; for `CC(C)n1nc(-c2ccc3oc(N)nc3c2)c2c(N)ncnc21`: 20.7% and 20.5%.
Still for that read-out and setting: then `CC1(C)CCC(CN2CCN(c3ccc(C(=O)NS(=O)(=O)c4ccc(NCC5CCOCC5)c([N+](=O)[O-])c4)c(Oc4cnc5[nH]ccc5c4)c3)CC2)=C(c2ccc(Cl)cc2)C1`, with 105% and 104%; and `CCCS(=O)(=O)Nc1ccc(F)c(C(=O)c2c[nH]c3ncc(-c4ccc(Cl)cc4)cc23)c1F`, with 95.3% and 98.5%; and `CCN1CCN(Cc2ccc(Nc3ncc(F)c(-c4cc(F)c5nc(C)n(C(C)C)c5c4)n3)nc2)CC1`, with 90.4% [middle of 13 runs].
The same measure, in the same setting: then `COc1c(OCCCN2CCOCC2)ccc2c3n(c(=NC(=O)c4cnc(N)nc4)nc12)CCN3`, with 47.2% and 49%; and `Cc1nc(NC(=O)N2CCCC2C(N)=O)sc1-c1ccnc(C(C)(C)C(F)(F)F)c1` (stereo unspecified), with 96.6% and 110%.
For `Cn1ncc(Cl)c1-c1cc(C(=O)NC(CN)Cc2cccc(F)c2)sc1Cl` (stereo unspecified), the viability, T/C was 90.4% and 98.8%.
The same measure, in the same setting: then `Cn1nccc1Nc1nccc(-c2ccn(C(CO)c3ccc(Cl)c(F)c3)c(=O)c2)n1` (stereo unspecified), with 104% and 107%; and `Cn1ncnc1[C@H]1c2n[nH]c(=O)c3cc(F)cc(c23)N[C@@H]1c1ccc(F)cc1`, with 90.2% and 96.4%.

Staying with this test, now noted: compound 0.0949 µM; hits give low values.
Take `CC(=O)c1c(C)c2cnc(Nc3ccc(N4CCNCC4)cn3)nc2n(C2CCCC2)c1=O`: the viability, T/C is 73.4% and 73.1%.
As for `CC(C)(C)c1cnc(CSc2cnc(NC(=O)C3CCNCC3)s2)o1`, the viability, T/C is 122% and 107%.
With `Cn1cnc2c(F)c(Nc3ccc(Br)cc3Cl)c(C(=O)NOCCO)cc21`, the viability, T/C was 104% and 96%.

Staying with this test, now noted: compound 0.1 µM; hits give low values.
With `C=CC(=O)N1CCN(c2nc(=O)n(-c3c(C)ccnc3C(C)C)c3nc(-c4c(O)cccc4F)c(F)cc23)C(C)C1` (stereo unspecified), the viability, T/C is 103% and 109%.
On the same count and under the same terms, the same measure for `C=CCn1c(=O)c2cnc(Nc3ccc(N4CCN(C)CC4)cc3)nc2n1-c1cccc(C(C)(C)O)n1`: 77.7% and 83.3%; for `CC(C)NCC(C(=O)N1CCN(c2ncnc3c2C(C)CC3O)CC1)c1ccc(Cl)cc1` (stereo unspecified): 96.2% [middle of 13 runs].
With `CC(C)n1nc(-c2ccc3oc(N)nc3c2)c2c(N)ncnc21`, the viability, T/C is 15.8% and 14.6%.
On the same count and under the same terms, then `CC1(C)CCC(CN2CCN(c3ccc(C(=O)NS(=O)(=O)c4ccc(NCC5CCOCC5)c([N+](=O)[O-])c4)c(Oc4cnc5[nH]ccc5c4)c3)CC2)=C(c2ccc(Cl)cc2)C1`, with 103% and 110%; and `CCCS(=O)(=O)Nc1ccc(F)c(C(=O)c2c[nH]c3ncc(-c4ccc(Cl)cc4)cc23)c1F`, with 101% and 109%; and `CCN1CCN(Cc2ccc(Nc3ncc(F)c(-c4cc(F)c5nc(C)n(C(C)C)c5c4)n3)nc2)CC1`, with 83.7% [middle of 13 runs].
On the same count and under the same terms, then `COc1c(OCCCN2CCOCC2)ccc2c3n(c(=NC(=O)c4cnc(N)nc4)nc12)CCN3`, with 29.4%; and `Cc1nc(NC(=O)N2CCCC2C(N)=O)sc1-c1ccnc(C(C)(C)C(F)(F)F)c1` (stereo unspecified), with 93.1% and 95.3%; and `Cn1ncc(Cl)c1-c1cc(C(=O)NC(CN)Cc2cccc(F)c2)sc1Cl` (stereo unspecified), with 91% and 85.1%.
Turning to `Cn1nccc1Nc1nccc(-c2ccn(C(CO)c3ccc(Cl)c(F)c3)c(=O)c2)n1` (stereo unspecified), the viability, T/C was 114% and 115%.
The same measure, in the same setting: then `Cn1ncnc1[C@H]1c2n[nH]c(=O)c3cc(F)cc(c23)N[C@@H]1c1ccc(F)cc1`, with 82.2% and 95.2%.

Still in this test, the particulars now being: compound 0.3 µM; hits give low values.
Take `CC(=O)c1c(C)c2cnc(Nc3ccc(N4CCNCC4)cn3)nc2n(C2CCCC2)c1=O`: the viability, T/C was 63.6% and 72.5%.
For `CC(C)(C)c1cnc(CSc2cnc(NC(=O)C3CCNCC3)s2)o1`, the viability, T/C is 4.21% and 2.95%.
Take `Cn1cnc2c(F)c(Nc3ccc(Br)cc3Cl)c(C(=O)NOCCO)cc21`: the viability, T/C was 89.2% and 88.1%.

The same test, now with this note: compound 0.316 µM; hits give low values.
In the case of `C=CC(=O)N1CCN(c2nc(=O)n(-c3c(C)ccnc3C(C)C)c3nc(-c4c(O)cccc4F)c(F)cc23)C(C)C1` (stereo unspecified), the viability, T/C was 113% and 116%.
Take `C=CCn1c(=O)c2cnc(Nc3ccc(N4CCN(C)CC4)cc3)nc2n1-c1cccc(C(C)(C)O)n1`: the viability, T/C was 46.2% and 47.5%.
The same measure, in the same setting: then `CC(C)NCC(C(=O)N1CCN(c2ncnc3c2C(C)CC3O)CC1)c1ccc(Cl)cc1` (stereo unspecified), with 83.9% [middle of 13 runs].

The values above are taken from PubChem BioAssay AID2060331 (Molecular Pharmacology Branch, DTP, NCI, 2025).
